From patent publication US20110144209A1, “USE OF VASOCONSTRICTORS” (priority 2008, published 2011)

Legend:
[1] = humans, 1.5 mg/kg, cited from earlier work
humans = settings: cited from earlier work
rhesus monkeys = settings: cited from earlier work
[2] = test system: Sprague Dawley albino rats; experiment: Anesthesia-induced hypothermia in rats, topical norepinephrine cream on tail, feet and ears (Example 2); assay type: in vivo, rat
Experimental: This experiment was similar to the experiment of Example 1, although Sprague Dawley albino rats were used. […] The test cream composition was 10% Norepinephrine vasoactive substance, 10% penetration enhancer (propylene glycol), and 80% conventional base cream.
All rats were subjected to one hour pre-anesthesia time (t=−60 to t=0), one hour anesthesia (t=0 to t=60), and 4 hours post anesthesia (t=60 to t=300). The appropriate cream was applied to the tail, feet, and ears skin surface of each rat. There were four rats in each test/control group. Vasoconstrictor cream was applied to the test group rats 3 times, at t=−60, t=−30, and t=0 min before anesthesia. Core body temperature was measured rectally. Rat tail skin temperature was measured at around the mid-length of the tail by press touching the thermometer tip to the skin surface.

AVA = settings: Pollock et al. 1996; cited from earlier work
[3] = test system: porcine carotid arteriovenous anastomoses; settings: porcine (De Vries et al. 1998); cited from earlier work
Male Wistar rats = test system: Male Wistar rats
From the text: Although there are differences between the thermoregulatory system of rats and humans, the tails and feet pads of rats function as thermoregulatory organs in a similar fashion to human skin. The rat tail skin and feet pads are exposed and not covered by fur. By controlling the blood flow to the tail skin and feet pads, the rat controls some of its heat dissipation to the environment. Only about 30% of the rat heat loss is regulated by the tail—much less than the role of the skin in humans.
Male Wistar rats, each about 400 g mass, were divided into three groups: a control group (C) of 8 rats, a test first group (A) of 7 rats, and a third test group (B) of 5 rats. All rats had test composition applied to the tail skin and the feet pads. All experiments were conducted at 23° C. ambient room temperature. All groups went though an anesthesia period of one hour (t=0 is time of start of anesthesia), and a follow-up period of 3 hours after end of anesthesia. Core body temperature (CBT) and tail skin temperature of the rats was measured using a thermocouple-based digital thermometer with 0.1° C. sensitivity.
For test group A, the cream was identical to that used for the control group, except it contained 6 wt. % epinephrine, a vasoconstrictor. The cream for test group B was the same as that for group A, except that the cream contained 20 wt. % penetration enhancer.
The cream on both control group C and test group A was applied at two times: first, concomitantly with application of anesthesia (t=0), and again at 20 min into anesthesia (t=20 m=⅓ h). CBT and tail temperatures were measured at t=0, 20, 40, 60, 120, 180 and 240 minutes.
In test group (B), two changes were made to the experimental procedure. First, the concentration of penetration enhancer (propylene glycol) in the cream was doubled to 20 wt. %. Second, the time of first cream application was done at 30 min before anesthesia (t=−30 min) and the second cream application was given with initiation of administration of anesthetic (t=0).

pigs = settings: 6 wt.% epinephrine, 10 wt.% propylene glycol cream at t=-40 min and t=0; after 130 minutes; room 20° C.
Experimental: The same composition, but without the epinephrine, was prepared for use as a control. Five pigs, each weighing 55-65 kg, were divided into two groups, three in the experimental group and two in the control group. The cream was administered 40 minutes before the onset of anesthesia (t=−40 min) and again with the commencement of general anesthesia (t=0). The room temperature was 20° C., with +/−1° C. fluctuations due to the thermostat of the air conditioner. The pigs were not covered with anything other than the cream, with which there were covered over their entire skin surface. Core body temperature was measured at t=−40, 0, 30, 50, 70, 100 and 130 min.

[4] = cited from earlier work
adult male Wistar rat = settings: injection into the preoptic area of rat brain; cited from earlier work
[5] = group B: 6 wt.% epinephrine, 20 wt.% propylene glycol

For CNC(C)Cc1ccc2c(c1)OCO2 (centres unmarked) [MDMA, 3,4-methylenedioxymethamphetamine], the “time of peak plasma concentration after oral administration” value [1] is given as “about two”, the “peak plasma concentration (average)” value ([1]; oral) is given as 0.331 ng/mL and the hyperthermic response (humans; humans, all doses tested (up to 2.0 mg/kg), laboratory conditions (Liechti 2000)) is given as “little or no hyperthermic response”. The “effect on core body temperature at different ambient temperatures” value (humans; recreational users, single exposure (Freedman et al. 2005)) was “produced hyperthermia regardless of ambient temperature”, the “time to flat peak of thermoregulatory disruption effect” value (rhesus monkeys; monkeys, after intravenous injection) was “about 90 minutes” and the “duration of flat peak of thermoregulatory disruption effect” value (rhesus monkeys; monkeys, intravenous injection) was “about 3 hours”. For the same molecule, the “hyperthermic rise compared to control” value (rhesus monkeys; rhesus monkeys, ambient temperature up to 31° C. (Banks et al. 2007)) was no more than 1 °C.
For NC[C@H](O)c1ccc(O)c(O)c1 [Norepinephrine, Norepinephrine Bitartrate], the “start of difference in core body temperature, time into anesthesia” value ([2]; 10% norepinephrine cream) was “about 20 min”, the “reversal of core and tail temperatures versus control” value ([2]; 10% norepinephrine cream, at about 90 min post anesthesia) was “the control group temperature goes above the test group temperature” and the “start of pronounced vasoconstrictor action after first application of cream” value ([2]; 10% norepinephrine cream, from skin and core temperature) was “about 80 min”. The “test group core body temperature higher than control group” value ([2]; 10% norepinephrine, 10% propylene glycol cream applied t=-60, -30, 0 min, remaining anesthesia period and 60 min post anesthesia) was 1-1.5 °C and the “effect on AVA” value (AVA) was “produced AVA vasoconstriction”.
In the case of Brc1c(NC2=NCCN2)ccc2nccnc12 [UK-14304, 5-bromo-N-(4,5-dihydro-1H-imidazol-2-yl)-6-quinoxalinamine], the “effect on AVA” value (AVA) is listed as “produced constriction of the AVA”.
In the case of c1ccc2c(c1)CC[C@H](CNCCCNC1=NCCCN1)O2 [alniditan], the “constriction of carotid arteriovenous anastomoses” value [3] is given as “potently constrict”.
For CNC[C@H](O)c1ccc(O)c(O)c1 [epinephrine], the “response time of vasoconstrictor action” value (Male Wistar rats; 6% Epinephrine cream of Example 1) was 20 to 30 min, the “duration of effect of vasoconstrictor application on CBT after anesthesia” value (Male Wistar rats; group A: 6 wt.% epinephrine, 10 wt.% propylene glycol) was “at least 3 hours” and the “tail temperature versus control group” value (Male Wistar rats; group A: 6 wt.% epinephrine, 10 wt.% propylene glycol, 20 minutes into the experiment) was “higher in the control group than in group A”. For the same molecule, the “difference in CBT between test and control group” value (Male Wistar rats; group A: 6 wt.% epinephrine, 10 wt.% propylene glycol, after 40 minutes through the remainder of the experiment (240 min)) was “one”, the “difference in CBT between groups A and C” value (Male Wistar rats; group A: cream with 6 wt.% epinephrine, 10 wt.% propylene glycol, applied t=0 and 20 min, first 40 minutes, 23° C. ambient) was “no significant difference” and the “time after which test group temperature rapidly falls off” value (Male Wistar rats; [5]) was 2 h. The “time from anesthesia within which the CBT difference is established” value (Male Wistar rats; [5]) was no more than 20 min, the “difference in CBT versus control group C” value (Male Wistar rats; group B: 6 wt.% epinephrine, 20 wt.% propylene glycol, applied t=-30 min and t=0, maintained throughout anesthesia (t=60 m)) was 2 °C and the “average decrease in CBT” value (pigs) was 0.7 °C. The “time after which activity diminishes significantly” value ([4]; topical) was 3 h and the “time to initial vasoconstrictor action after application” value ([4]; topical) was no more than 20 min.
In the case of COc1ccc(OC)c(C(O)C(C)N)c1 (centres unmarked) [methoxamine], the “effect on body temperature” value (adult male Wistar rat) is listed as “resulted in hypothermia”.
In the case of CNC[C@H](O)c1cccc(O)c1 [phenylephrine], the “effect on AVA” value (AVA) is listed as “produced AVA constriction” and the “time after application at which vasoconstricting effect begins” value ([4]; topical / dermal) is listed as “about 3 hours”.
For CNS(=O)(=O)Cc1ccc2[nH]cc(CCN(C)C)c2c1 [sumatriptan], the “constriction of carotid arteriovenous anastomoses” value [3] is given as “potently constrict”.
